Drawing on publication PMC2804909 (Journal of medicinal chemistry, 2010), this text covers Kd for two molecules.

Assay [1] concerns the target HiOASS-A (Haemophilus influenzae, UniProt P45040). Briefly: biochemical.
In assay [2] the target is T1, MNLNI (SAT C-terminal pentapeptide) (Haemophilus influenzae).
T1 chain: MNLNI
Kind of assay: fluorescence titration.

No end group written: not given here.

MNENI [MNENI] came in with a Kd in assay [1] of approximately 7 mM.

B1: HiOASS-A (protein)
chain: MAIYADNSYSIGNTPLVRLKHFGHNGNVVVKIEGRNPSYSVKCRIGANMVWQAEKDGTLTKGKEIVDATSGNTGIALAYVAAARGYKITLTMPETMSLERKRLLCGLGVNLVLTEGAKGMKGAIAKAEEIVASDPSRYVMLKQFENPANPQIHRETTGPEIWKDTDGKVDVVVAGVGTGGSITGISRAIKLDFGKQITSVAVEPVESPVISQTLAGEEVKPGPHKIQGIGAGFIPKNLDLSIIDRVETVDSDTALATARRLMAEEGILAGISSGAAVAAADRLAKLPEFADKLIVVILPSASERYLSTALFEGIEG
With B1, binding in assay [2] was put at a Kd of 0.044 mM.
